Source: article PMC7932537, “Quantitative profiling of protease specificity” (PLoS Computational Biology, 2021)

Experiments:
[1] = biological target: MMP-9 (Homo sapiens, UniProt P14780); test: K(obs) of individual phage substrates (set of 1369); format: biochemical; details: MMP9, individual phage substrates, set of 1369 peptides
[2] = biological target: T1, MMP-2 (Homo sapiens, UniProt P08253); test: as above; format: biochemical; details: MMP2
T1 sequence (P08253 110-660): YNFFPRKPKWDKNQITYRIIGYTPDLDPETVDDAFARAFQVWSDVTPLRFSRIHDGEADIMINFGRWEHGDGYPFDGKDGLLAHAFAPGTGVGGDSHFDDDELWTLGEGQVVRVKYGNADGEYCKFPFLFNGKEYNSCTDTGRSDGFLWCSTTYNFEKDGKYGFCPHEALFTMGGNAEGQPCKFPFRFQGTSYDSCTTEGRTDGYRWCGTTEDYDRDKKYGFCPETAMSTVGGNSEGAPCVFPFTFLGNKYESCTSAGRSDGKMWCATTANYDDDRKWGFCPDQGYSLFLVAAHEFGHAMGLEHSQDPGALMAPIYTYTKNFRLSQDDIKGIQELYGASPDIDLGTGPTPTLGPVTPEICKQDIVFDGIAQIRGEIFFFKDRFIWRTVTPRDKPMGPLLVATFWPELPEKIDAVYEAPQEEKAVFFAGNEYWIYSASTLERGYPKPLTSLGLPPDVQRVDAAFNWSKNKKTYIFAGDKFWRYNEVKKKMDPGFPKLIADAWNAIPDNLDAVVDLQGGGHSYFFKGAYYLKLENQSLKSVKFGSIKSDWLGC

[3] = '-' marks the cleavage position (P1-P1')
[4] = individual phage substrates, set of 1369 peptides, cleavage position marked by '-' in the sequence
[5] = dash in sequence marks cleavage position
[6] = individual phage substrate from the set of 1369 peptides, cleavage position marked by the dash in the sequence

Sequence of MMP-9 (P14780 94-707): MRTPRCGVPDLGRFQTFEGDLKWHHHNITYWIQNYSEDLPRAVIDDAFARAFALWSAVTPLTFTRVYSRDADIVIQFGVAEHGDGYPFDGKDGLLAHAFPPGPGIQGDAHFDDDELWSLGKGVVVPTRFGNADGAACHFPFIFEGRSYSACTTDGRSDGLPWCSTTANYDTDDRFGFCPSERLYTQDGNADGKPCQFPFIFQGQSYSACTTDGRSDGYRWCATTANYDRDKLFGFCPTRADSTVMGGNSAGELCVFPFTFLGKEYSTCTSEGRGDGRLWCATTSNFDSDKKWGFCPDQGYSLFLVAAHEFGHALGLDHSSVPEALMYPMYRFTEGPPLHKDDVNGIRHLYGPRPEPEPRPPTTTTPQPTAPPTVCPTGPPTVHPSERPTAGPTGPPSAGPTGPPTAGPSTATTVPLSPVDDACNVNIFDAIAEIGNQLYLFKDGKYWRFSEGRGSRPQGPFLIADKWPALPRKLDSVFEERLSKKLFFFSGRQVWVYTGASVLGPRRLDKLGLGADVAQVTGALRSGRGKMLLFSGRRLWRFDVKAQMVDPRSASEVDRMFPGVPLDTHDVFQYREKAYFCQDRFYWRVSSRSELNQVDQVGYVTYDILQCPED

Row | Kobs [1, 3] | Kobs [2, 4] | Kobs [1, 5] | Kobs [2, 6] | Substance
1 | 619.843 M⁻¹ s⁻¹ | 0 M⁻¹ s⁻¹ |  |  | SGALA-LLDTA
2 | 551.253 M⁻¹ s⁻¹ | 3438.54 M⁻¹ s⁻¹ |  |  | VDILH-LTASG
3 | 2157.02 M⁻¹ s⁻¹ | 1981.53 M⁻¹ s⁻¹ |  |  | SGIYG-LRNTA
4 | 2157.02 M⁻¹ s⁻¹ | 799.117 M⁻¹ s⁻¹ |  |  | SGVRM-LRRTA
5 | 0 M⁻¹ s⁻¹ | 0 M⁻¹ s⁻¹ |  |  | GGSGS-LRLFE
6 | 0 M⁻¹ s⁻¹ | 0 M⁻¹ s⁻¹ |  |  | GVLHS-LRTAS
7 | 6131.32 M⁻¹ s⁻¹ | 7386.83 M⁻¹ s⁻¹ |  |  | GQPVP-MLTAS
8 | 12792.1 M⁻¹ s⁻¹ | 12792.1 M⁻¹ s⁻¹ |  |  | GAPSS-LRTAS
9 | 0 M⁻¹ s⁻¹ | 0 M⁻¹ s⁻¹ |  |  | SGLWT-LMATA
10 | 201.585 M⁻¹ s⁻¹ | 201.585 M⁻¹ s⁻¹ |  |  | SGALH-LRETA
11 |  |  | 551.253 M⁻¹ s⁻¹ | 654.784 M⁻¹ s⁻¹ | SGVFS-LKLTA
12 | 3741.87 M⁻¹ s⁻¹ | 5269.78 M⁻¹ s⁻¹ |  |  | YAPGS-MTASG
13 | 56.119 M⁻¹ s⁻¹ | 2038.8 M⁻¹ s⁻¹ |  |  | IVNAR-LTASG
14 | 0 M⁻¹ s⁻¹ | 0 M⁻¹ s⁻¹ |  |  | GRVHR-LSTAS
15 | 231.616 M⁻¹ s⁻¹ | 142.481 M⁻¹ s⁻¹ |  |  | GVGHN-LRTAS
16 |  |  | 0 M⁻¹ s⁻¹ | 10866.7 M⁻¹ s⁻¹ | NDLAH-ITASG
17 |  |  | 4922.1 M⁻¹ s⁻¹ | 1870.4 M⁻¹ s⁻¹ | RVPKL-LTASG
18 | 12792.1 M⁻¹ s⁻¹ | 5667.28 M⁻¹ s⁻¹ |  |  | FAAYS-LTASG
19 | 12792.1 M⁻¹ s⁻¹ | 12792.1 M⁻¹ s⁻¹ |  |  | SGPIP-IRKTA
20 | 0 M⁻¹ s⁻¹ | 836.403 M⁻¹ s⁻¹ |  |  | GGLGM-MLTAS
21 | 113.394 M⁻¹ s⁻¹ | 1112.44 M⁻¹ s⁻¹ |  |  | GRLGC-LKTAS

Row | Kobs [1, 3] | Kobs [2, 4] | Kobs [1, 5] | Kobs [2, 6] | Substance
22 | 0 M⁻¹ s⁻¹ | 0 M⁻¹ s⁻¹ |  |  | SGFSE-LTLTA
23 | 654.784 M⁻¹ s⁻¹ | 12792.1 M⁻¹ s⁻¹ |  |  | VSISF-LTASG
24 | 323.705 M⁻¹ s⁻¹ | 0 M⁻¹ s⁻¹ |  |  | SGPHS-MKLTA
25 | 12792.1 M⁻¹ s⁻¹ | 1196.62 M⁻¹ s⁻¹ |  |  | SGYLP-LLYTA
26 | 0 M⁻¹ s⁻¹ | 874.197 M⁻¹ s⁻¹ |  |  | SGLAS-LRLTA
27 | 0 M⁻¹ s⁻¹ | 0 M⁻¹ s⁻¹ |  |  | GGSGM-LLMKQ
28 | 0 M⁻¹ s⁻¹ | 323.705 M⁻¹ s⁻¹ |  |  | SGMSS-LKFTA
29 | 5667.28 M⁻¹ s⁻¹ | 7386.83 M⁻¹ s⁻¹ |  |  | SLYRA-LTASG
30 | 12792.1 M⁻¹ s⁻¹ | 1196.62 M⁻¹ s⁻¹ |  |  | ISPML-LTASG
31 | 0 M⁻¹ s⁻¹ | 517.582 M⁻¹ s⁻¹ |  |  | GRASA-LNTAS
32 | 12792.1 M⁻¹ s⁻¹ | 12792.1 M⁻¹ s⁻¹ |  |  | VTPLY-LTASG
33 |  |  | 9740.44 M⁻¹ s⁻¹ | 6131.32 M⁻¹ s⁻¹ | KMPRW-ITASG
34 | 201.585 M⁻¹ s⁻¹ | 762.325 M⁻¹ s⁻¹ |  |  | SGLYG-LTLTA
35 | 585.336 M⁻¹ s⁻¹ | 551.253 M⁻¹ s⁻¹ |  |  | YQTMA-LTASG
36 | 4335.13 M⁻¹ s⁻¹ | 1513.13 M⁻¹ s⁻¹ |  |  | LPALN-MTASG
37 | 0 M⁻¹ s⁻¹ | 1763.55 M⁻¹ s⁻¹ |  |  | GTMMS-LMTAS
38 |  |  | 5461.43 M⁻¹ s⁻¹ | 12792.1 M⁻¹ s⁻¹ | SLPAH-ITASG
39 | 231.616 M⁻¹ s⁻¹ | 201.585 M⁻¹ s⁻¹ |  |  | GSGQG-LKVRT
40 |  |  | 3741.87 M⁻¹ s⁻¹ | 12792.1 M⁻¹ s⁻¹ | ESPSF-LTASG
41 |  |  | 0 M⁻¹ s⁻¹ | 1327.88 M⁻¹ s⁻¹ | MDLLS-LTASG
42 | 12792.1 M⁻¹ s⁻¹ | 12792.1 M⁻¹ s⁻¹ |  |  | SGPLS-LRSTA

Row | Kobs [1, 3] | Kobs [2, 4] | Kobs [1, 5] | Kobs [2, 6] | Substance
43 |  |  | 1239.69 M⁻¹ s⁻¹ | 10866.7 M⁻¹ s⁻¹ | SPAHG-LTASG
44 |  |  | 9740.44 M⁻¹ s⁻¹ | 5269.78 M⁻¹ s⁻¹ | SKIRF-LTASG
45 |  |  | 0 M⁻¹ s⁻¹ | 56.119 M⁻¹ s⁻¹ | GEVWR-LHTAS
46 |  |  | 585.336 M⁻¹ s⁻¹ | 12792.1 M⁻¹ s⁻¹ | EAVGN-LTASG
47 | 1327.88 M⁻¹ s⁻¹ | 1816.46 M⁻¹ s⁻¹ |  |  | GSPVQ-LTTAS
48 | 7815.03 M⁻¹ s⁻¹ | 12792.1 M⁻¹ s⁻¹ |  |  | WLAQA-LTASG
49 | 0 M⁻¹ s⁻¹ | 113.394 M⁻¹ s⁻¹ |  |  | GGSGR-LVVRL
50 | 12792.1 M⁻¹ s⁻¹ | 12792.1 M⁻¹ s⁻¹ |  |  | GQVRA-LRTAS
51 |  |  | 912.511 M⁻¹ s⁻¹ | 912.511 M⁻¹ s⁻¹ | ARAQH-ITASG
52 | 836.403 M⁻¹ s⁻¹ | 0 M⁻¹ s⁻¹ |  |  | GQHMR-LITAS
53 |  |  | 0 M⁻¹ s⁻¹ | 0 M⁻¹ s⁻¹ | SGSAR-LTLTA
54 | 726.013 M⁻¹ s⁻¹ | 8941.32 M⁻¹ s⁻¹ |  |  | MAYQS-LTASG
55 | 2761.81 M⁻¹ s⁻¹ | 1513.13 M⁻¹ s⁻¹ |  |  | ANAMN-LTASG
56 | 0 M⁻¹ s⁻¹ | 0 M⁻¹ s⁻¹ |  |  | GPMQR-LMTAS
57 | 0 M⁻¹ s⁻¹ | 0 M⁻¹ s⁻¹ |  |  | AGLDL-LTASG
58 | 231.616 M⁻¹ s⁻¹ | 0 M⁻¹ s⁻¹ |  |  | GSGLE-LRVNT
59 |  |  | 0 M⁻¹ s⁻¹ | 4613.14 M⁻¹ s⁻¹ | GGSGA-LTSRF
60 | 5269.78 M⁻¹ s⁻¹ | 12792.1 M⁻¹ s⁻¹ |  |  | TPVGW-MTASG
61 |  |  | 517.582 M⁻¹ s⁻¹ | 0 M⁻¹ s⁻¹ | GTLAQ-ISTAS
62 |  |  | 27.918 M⁻¹ s⁻¹ | 113.394 M⁻¹ s⁻¹ | GCAQE-LTTAS
63 | 0 M⁻¹ s⁻¹ | 7815.03 M⁻¹ s⁻¹ |  |  | GRIAL-LTTAS

Row | Kobs [1, 3] | Kobs [2, 4] | Kobs [1, 5] | Kobs [2, 6] | Substance
64 |  |  | 2038.8 M⁻¹ s⁻¹ | 6131.32 M⁻¹ s⁻¹ | GTPSK-LYTAS
65 | 0 M⁻¹ s⁻¹ | 3438.54 M⁻¹ s⁻¹ |  |  | GVLGH-LSTAS
66 |  |  | 355.093 M⁻¹ s⁻¹ | 292.668 M⁻¹ s⁻¹ | GEAWH-LFTAS
67 | 12792.1 M⁻¹ s⁻¹ | 12792.1 M⁻¹ s⁻¹ |  |  | FIARA-LTASG
68 |  |  | 355.093 M⁻¹ s⁻¹ | 2097.28 M⁻¹ s⁻¹ | TVSLP-LTASG
69 | 12792.1 M⁻¹ s⁻¹ | 12792.1 M⁻¹ s⁻¹ |  |  | HHPAA-LTASG
70 | 142.481 M⁻¹ s⁻¹ | 0 M⁻¹ s⁻¹ |  |  | SGWAS-MRLTA
71 | 7015.91 M⁻¹ s⁻¹ | 12792.1 M⁻¹ s⁻¹ |  |  | VQLRS-LTASG
72 | 0 M⁻¹ s⁻¹ | 0 M⁻¹ s⁻¹ |  |  | GVVHS-FCTAS
73 | 3850.82 M⁻¹ s⁻¹ | 12792.1 M⁻¹ s⁻¹ |  |  | FHIAH-LTASG
74 |  |  | 323.705 M⁻¹ s⁻¹ | 142.481 M⁻¹ s⁻¹ | GAPDQ-LSTAS
75 | 0 M⁻¹ s⁻¹ | 5269.78 M⁻¹ s⁻¹ |  |  | VDHAH-LTASG
76 |  |  | 12792.1 M⁻¹ s⁻¹ | 12792.1 M⁻¹ s⁻¹ | SGPVS-LRMTA
77 | 8941.32 M⁻¹ s⁻¹ | 12792.1 M⁻¹ s⁻¹ |  |  | HLPTA-LTASG
78 | 12792.1 M⁻¹ s⁻¹ | 12792.1 M⁻¹ s⁻¹ |  |  | SGPYN-LRGTA
79 | 2837.92 M⁻¹ s⁻¹ | 1071.29 M⁻¹ s⁻¹ |  |  | AVTYA-LTASG
80 | 0 M⁻¹ s⁻¹ | 0 M⁻¹ s⁻¹ |  |  | GSGAW-LKKIT
81 |  |  | 836.403 M⁻¹ s⁻¹ | 201.585 M⁻¹ s⁻¹ | GAAWG-LNTAS
82 | 951.362 M⁻¹ s⁻¹ | 1711.63 M⁻¹ s⁻¹ |  |  | VTVIA-LTASG
83 | 12792.1 M⁻¹ s⁻¹ | 8941.32 M⁻¹ s⁻¹ |  |  | RYPWA-LTASG
84 | 0 M⁻¹ s⁻¹ | 0 M⁻¹ s⁻¹ |  |  | SGLAK-LTVTA
